Measurements reported in patent publication US6897217B2, “2-Alkynyl-and 2-alkenyl-pyrazolo-[4,3-e]-1,2,4-triazolo-[1,5-c]-pyrimidine adenosine A2a receptor antagonists” (Schering Corporation, priority 2003, dated 2005).

Target: T1, Human A2a Adenosine Receptor (Homo sapiens, UniProt P29274)
T1 construct: purchased Receptor Biology, Inc., Beltsville, Md; RB-HA2a
Test: Human adenosine A2a receptor competition binding assay
Conditions: [3H]-SCH 58261 displacement, human A2a membranes
Experimental: Human Adenosine A2a and A1 Receptor Competition Binding Assay Protocol
• A2a: Human A2a Adenosine Receptor membranes, Catalog #RB-HA2a, Receptor Biology, Inc., Beltsville, Md. Dilute to 17 μg/100 μl in membrane dilution buffer (see below). Assay Buffers • Membrane dilution buffer: Dulbecco's Phosphate Buffered Saline (Gibco/BRL)+10 mM MgCl2. • Compound Dilution Buffer: Dulbecco's Phosphate Buffered Saline (Gibco/BRL)+10 mM MgCl2 supplemented with 1.6 mg/ml methyl cellulose and 16% DMSO. Prepared fresh daily. Ligands • A2a: [3H]-SCH 58261, custom synthesis, AmershamPharmacia Biotech, Piscataway, N.J. Stock is prepared at 1 nM in membrane dilution buffer. Final assay concentration is 0.5 nM. • A1: [3H]-DPCPX, AmershamPharmacia Biotech, Piscataway, N.J. Stock is prepared at 2 nM in membrane dilution buffer. Final assay concentration is 1 nM. Non-specific Binding • A2a: To determine non-specific binding, add 100 nM CGS 15923 (RBI, Natick, Mass.). Working stock is prepared at 400 nM in compound dilution buffer. • A1: To determine non-specific binding, add 100 μM NECA (RBI, Natick, Mass.). Working stock is prepared at 400 μM in compound dilution buffer. Compound Dilution • Prepare 1 mM stock solutions of compounds in 100% DMSO. Dilute in compound dilution buffer. Test at 10 concentrations ranging from […] to 30 μM. Prepare working solutions at 4× final concentration in compound dilution buffer. […]

T1 sequence (P29274 whole entry): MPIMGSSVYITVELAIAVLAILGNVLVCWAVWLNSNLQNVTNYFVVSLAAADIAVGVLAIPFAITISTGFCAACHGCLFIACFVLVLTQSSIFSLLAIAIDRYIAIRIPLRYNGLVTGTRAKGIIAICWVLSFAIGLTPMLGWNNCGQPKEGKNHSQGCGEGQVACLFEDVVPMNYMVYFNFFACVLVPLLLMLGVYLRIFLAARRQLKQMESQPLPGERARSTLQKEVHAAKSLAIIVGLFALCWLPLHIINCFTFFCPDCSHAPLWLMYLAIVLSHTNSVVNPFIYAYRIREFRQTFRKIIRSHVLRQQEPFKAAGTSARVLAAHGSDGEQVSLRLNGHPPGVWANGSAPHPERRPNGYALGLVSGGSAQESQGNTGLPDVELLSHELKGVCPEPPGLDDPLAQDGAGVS

Row | Ki | Structure (SMILES)
1 | 2.2 nM | CC#Cc1nc2c3cnn(CCN4CCN(c5ccc(F)cc5F)CC4)c3nc(N)n2n1 [Example 1-17]
2 | 2.3 nM | CC#Cc1nc2c3cnn(CCN4CCN(c5ccc(OCCOC)cc5F)CC4)c3nc(N)n2n1 [Example 5-4]
